As a reminder, the IC50 is the concentration that gives 50% inhibition. Broadly, the IC90 is the concentration at which the effect reaches the 90% level.

34 compounds from ChEMBL document CHEMBL4483862, “Open-source discovery of chemical leads for next-generation chemoprotective antimalarials” (2018) can be followed below.

This experiment relates to Plasmodium berghei. Put plainly: Luciferase/luciferin-expressing antifolate-resistant parasites were used to infect a culture of HepG2 cells that were pre-incubated with compounds. Infected hepatocytes emit light due to the luciferase reaction. Assay results are presented as the percent inhibition of light emission compared to control. […]. Format: functional. To be noted: sporozoite; for IC90: read-out: LUCIFERASE INFECTION ASSAY - IC90.

Regarding `O=C(c1cc(-c2ccccc2)[nH]n1)N1CCN(S(=O)(=O)c2ccccc2)CC1`, the IC90 was more than 10 µM. Besides, the IC50 (PBLUC_HILL_SLOPE 0.361, PBLUC_R_SQUARED 0.34, read-out: LUCIFERASE INFECTION ASSAY - IC50) turned out to be 1.07 µM.

For `Cc1cc(C(=O)Cn2nnc3ccccc3c2=O)c(C)n1-c1ccccc1F`, the IC90 came out at 3.8 µM. Where the note is “PBLUC_HILL_SLOPE 0.371, 0.679, PBLUC_R_SQUARED 0.784, 0.965, read-out: LUCIFERASE INFECTION ASSAY - IC50”, the IC50 was 0.126 µM.

With `COc1cc(-c2nc3ccc(NC(=O)c4ccco4)cn3n2)cc(OC)c1OC`, the IC90 was more than 10 µM. For the setting “PBLUC_HILL_SLOPE 0.261, PBLUC_R_SQUARED 0.0451, read-out: LUCIFERASE INFECTION ASSAY - IC50”, the IC50 is more than 10 µM.

In the case of `COC(=O)c1c(NC(=O)CSc2nnc(-c3ccccc3Cl)n2C2CCCC2)sc(C)c1C`, the IC90 is more than 10 µM. Further, under “PBLUC_HILL_SLOPE 0.364, PBLUC_R_SQUARED 0.4, read-out: LUCIFERASE INFECTION ASSAY - IC50”, the IC50 is more than 10 µM.

As for `CC(C)c1nc(NCC2CCCO2)c(C#N)c2c1CCCC2` (stereo not drawn), the IC90 is more than 11 µM. Also, the IC50 (PBLUC_HILL_SLOPE 0.297, PBLUC_R_SQUARED 0.0572, read-out: LUCIFERASE INFECTION ASSAY - IC50) was more than 11 µM.

As to `Nc1n[nH]c(Nc2cccc(Cl)c2Cl)c1C(=O)c1cccs1`, the IC90 worked out at 3.45 µM. Besides, the IC50 (PBLUC_HILL_SLOPE 0.162, PBLUC_R_SQUARED 0.284, read-out: LUCIFERASE INFECTION ASSAY - IC50) is less than 0.0128 µM.

Regarding `C=CCNC(=S)N1CCc2sccc2C1c1ccc(OC)cc1` (stereo not drawn), the IC90 is more than 9.58 µM. In addition, under “PBLUC_HILL_SLOPE 0.135, PBLUC_R_SQUARED 0.112, read-out: LUCIFERASE INFECTION ASSAY - IC50”, the half-maximal inhibitory concentration (IC50) was more than 9.58 µM.

Consider `O=C(N/N=C1/C(=O)c2cccc3cccc1c23)c1ccccc1-n1cccc1`, for which the IC90 was more than 10 µM. In addition, under “PBLUC_HILL_SLOPE 0.275, PBLUC_R_SQUARED 0.0663, read-out: LUCIFERASE INFECTION ASSAY - IC50”, the IC50 is more than 10 µM.

Consider `Cc1cc2oc(=O)cc(Cn3cnc([N+](=O)[O-])c3)c2cc1C`, for which the IC90 was more than 10 µM. Moreover, the IC50 (PBLUC_HILL_SLOPE 0.353, PBLUC_R_SQUARED 0.0201, read-out: LUCIFERASE INFECTION ASSAY - IC50) was more than 10 µM.

As to `COc1ccc2ccccc2c1/C=N/n1c(-c2ccc(Br)s2)cs/c1=N\c1ccc(Cl)cc1`, the IC90 is more than 10 µM. Further, the IC50 (PBLUC_HILL_SLOPE 0.354, PBLUC_R_SQUARED 0.256, read-out: LUCIFERASE INFECTION ASSAY - IC50) is more than 10 µM.

`O=C(Nc1cc(C(F)(F)F)cc(C(F)(F)F)c1)c1cc2ccccc2s1`: the 90% effect concentration (IC90) is more than 8.48 µM. The IC50 (PBLUC_HILL_SLOPE 0.25, PBLUC_R_SQUARED 0.0524, read-out: LUCIFERASE INFECTION ASSAY - IC50) was more than 8.48 µM.

For the compound `CCOC(=O)c1c(C)[nH]c(C(=O)C(C)OC(=O)c2ccc(S(=O)(=O)N(C)c3ccccc3OC)cc2)c1C` (stereo not drawn), the 90% effect concentration (IC90) is more than 10 µM. Further, under “HEPG2TOX_HILL_SLOPE 113, HEPG2TOX_R_SQUARED 0.62, read-out: LUCIFERASE INFECTION ASSAY - IC50”, the IC50 is more than 10 µM.

In the case of `CN(C)S(=O)(=O)c1cccc(C(=O)Nc2cnc3ccccc3c2)c1`, the IC90 is more than 10 µM. The IC50 (PBLUC_HILL_SLOPE 0.341, PBLUC_R_SQUARED 0.599, read-out: LUCIFERASE INFECTION ASSAY - IC50) is 0.331 µM.

Turning to `Cc1cccc(C(=O)NCC(=O)Nc2ncc(C)s2)c1`, the IC90 is more than 10 µM. Further, for the setting “HEPG2TOX_HILL_SLOPE 123, HEPG2TOX_R_SQUARED 0.298, PBLUC_HILL_SLOPE 16, PBLUC_R_SQUARED 0.209, read-out: LUCIFERASE INFECTION ASSAY - IC50”, the IC50 worked out at 9.16 µM.

On to `Cc1cc(-n2c(-c3cccnc3Oc3ccccc3)n[nH]c2=S)ccc1Br`, for which the IC90 is more than 7.51 µM. In addition, the IC50 (PBLUC_HILL_SLOPE 0.263, PBLUC_R_SQUARED 0.232, read-out: LUCIFERASE INFECTION ASSAY - IC50) is more than 7.51 µM.

Take `CCCn1c(C)cc(/C=C(\C#N)C(=O)OCC(=O)Nc2sc(C)c(-c3ccc(C)cc3)c2C(=O)OCC)c1C`: the IC90 was more than 10 µM. In addition, for the setting “PBLUC_HILL_SLOPE 0.191, PBLUC_R_SQUARED 0.0121, read-out: LUCIFERASE INFECTION ASSAY - IC50”, the IC50 is more than 10 µM.

In the case of `Clc1nc2ccc3nsnc3c2nc1Cl`, the IC90 was found to be 3.65 µM. For the setting “HEPG2TOX_HILL_SLOPE 109, HEPG2TOX_R_SQUARED 0.525, PBLUC_HILL_SLOPE 3.55, PBLUC_R_SQUARED 0.399, read-out: LUCIFERASE INFECTION ASSAY - IC50”, the IC50 was 1.96 µM.

Take `CCOC(=O)c1c(C)[nH]c(C(=O)Nc2cccc(C)n2)c1C`: the IC90 is more than 10 µM. In addition, the IC50 (PBLUC_HILL_SLOPE 0.344, PBLUC_R_SQUARED 0.589, read-out: LUCIFERASE INFECTION ASSAY - IC50) is 0.0971 µM.

Take `COc1ccc(N2CCN(CCCNS(=O)(=O)c3ccc(Cl)cc3C(F)(F)F)CC2)cc1`: the IC90 was more than 10 µM. Also, for the setting “PBLUC_HILL_SLOPE 0.0792, 17.3, PBLUC_R_SQUARED 0.0344, 0.317, read-out: LUCIFERASE INFECTION ASSAY - IC50”, the IC50 is 9.67 µM.

For `Cc1ccc(C(CN2CCOCC2)NC(=O)c2occc2-c2ccccc2)cc1` (stereo not drawn), the concentration for an effect of 90% (IC90) was more than 10 µM. For the same compound, where the note is “HEPG2TOX_HILL_SLOPE 140, HEPG2TOX_R_SQUARED 0.302, PBLUC_HILL_SLOPE 0.784, PBLUC_R_SQUARED 0.306, read-out: LUCIFERASE INFECTION ASSAY - IC50”, the IC50 turned out to be 8.27 µM.

In the case of `COc1cccc(NC(=O)c2cc(C(C)(C)C)n(-c3ccccc3)c2C)c1`, the IC90 was more than 9.1 µM. Besides, the half-maximal inhibitory concentration (IC50) (PBLUC_HILL_SLOPE 0.223, PBLUC_R_SQUARED 0.111, read-out: LUCIFERASE INFECTION ASSAY - IC50) was more than 9.1 µM.

As to `CCCCc1ccc(C(=O)Nc2nc3ccccn3c2C(=O)NCCCN2CCOCC2)cc1`, the IC90 is more than 7.12 µM. Further, the concentration for half-maximal inhibition (IC50) (PBLUC_HILL_SLOPE 0.361, PBLUC_R_SQUARED 0.518, read-out: LUCIFERASE INFECTION ASSAY - IC50) is 2.21 µM.

On to `COc1ccccc1NC(=S)N/N=C/c1ccc(N2CCOCC2)cc1`, for which the IC90 is more than 10 µM. Further, for the setting “PBLUC_HILL_SLOPE 0.342, PBLUC_R_SQUARED 0.162, read-out: LUCIFERASE INFECTION ASSAY - IC50”, the IC50 was 1.98 µM.

As to `O=C(Cn1ncc(Cl)c(Cl)c1=O)Nc1ccc(F)c(F)c1F`, the IC90 turned out to be 9.46 µM. In addition, the IC50 (HEPG2TOX_HILL_SLOPE 271, HEPG2TOX_R_SQUARED 0.59, PBLUC_HILL_SLOPE 12.5, PBLUC_R_SQUARED 0.106, read-out: LUCIFERASE INFECTION ASSAY - IC50) came out at 7.93 µM.

For the compound `O=C(COc1ccccc1CSc1ccc(Cl)cc1)N/N=C\c1ccc(Cl)cc1`, the IC90 was more than 7.41 µM. Under “PBLUC_HILL_SLOPE 0.291, PBLUC_R_SQUARED 0.508, read-out: LUCIFERASE INFECTION ASSAY - IC50”, the IC50 was more than 7.41 µM.

In the case of `O=C(Nc1ccc(Cl)cc1)OCc1nccn1Cc1ccc(Cl)cc1`, the IC90 was more than 8.77 µM. For the same compound, the IC50 (PBLUC_HILL_SLOPE 0.184, PBLUC_R_SQUARED 0.0602, read-out: LUCIFERASE INFECTION ASSAY - IC50) is more than 8.77 µM.

Consider `COc1ccc(S(=O)(=O)NC(C)(C)C)cc1C(C)(C)C`, for which the IC90 is more than 3.33 µM. For the same compound, the IC50 (PBLUC_HILL_SLOPE 0.386, PBLUC_R_SQUARED 0.474, read-out: LUCIFERASE INFECTION ASSAY - IC50) turned out to be 0.196 µM.

In the case of `CC1(C)CC(CCNCc2ccc(F)cc2)(Cc2ccccc2)CCO1` (stereo not drawn), the IC90 amounted to 4.13 µM. Further, the IC50 (HEPG2TOX_HILL_SLOPE 551, HEPG2TOX_R_SQUARED 0.482, PBLUC_HILL_SLOPE 3.65, PBLUC_R_SQUARED 0.507, read-out: LUCIFERASE INFECTION ASSAY - IC50) was determined as 2.26 µM.

In the case of `N=C1NC(=O)C(C2(O)C(=O)N(Cc3ccccc3)c3ccc(Cl)cc32)S1` (stereo not drawn), the IC90 was more than 8.51 µM. Further, the IC50 (PBLUC_HILL_SLOPE 0.13, PBLUC_R_SQUARED 0.0166, read-out: LUCIFERASE INFECTION ASSAY - IC50) is more than 8.51 µM.

Regarding `C(#Cc1ccc(-c2cc[nH]n2)s1)c1ccccc1`, the IC90 was more than 13.2 µM. Moreover, the IC50 (PBLUC_HILL_SLOPE 0.121, PBLUC_R_SQUARED 0.262, read-out: LUCIFERASE INFECTION ASSAY - IC50) worked out at 0.0465 µM.

`O=C(Nc1ccc(N2CCCC2)cn1)c1cc(Cl)ccn1`: the 90% effect concentration (IC90) worked out at 2.06 µM. The IC50 (PBLUC_HILL_SLOPE 0.363, 0.720, PBLUC_R_SQUARED 0.388, 0.822, read-out: LUCIFERASE INFECTION ASSAY - IC50) was 0.119 µM.

Regarding `Cc1cnc(C(=O)Nc2cc(C(F)(F)F)ccc2N2CCN(C)CC2)cn1`, the IC90 was more than 10 µM. Moreover, the IC50 (PBLUC_HILL_SLOPE 0.31, PBLUC_R_SQUARED 0.853, read-out: LUCIFERASE INFECTION ASSAY - IC50) was more than 10 µM.

Turning to `O=C(COC(=O)C1Cc2ccccc2CN1S(=O)(=O)/C=C/c1ccccc1)c1ccccc1` (stereo not drawn), the IC90 is more than 10 µM. For the same compound, for the setting “PBLUC_HILL_SLOPE 0.237, PBLUC_R_SQUARED 0.0458, read-out: LUCIFERASE INFECTION ASSAY - IC50”, the IC50 is more than 10 µM.

Take `COc1ccc2c(C)nc(Nc3nc(O)c4ccccc4n3)nc2c1`: the IC90 stood at 3.1 µM. Also, the IC50 (HEPG2TOX_HILL_SLOPE 241, HEPG2TOX_R_SQUARED 0.475, PBLUC_HILL_SLOPE 24.4, PBLUC_R_SQUARED 0.363, read-out: LUCIFERASE INFECTION ASSAY - IC50) worked out at 2.83 µM.
